# Experimental data as given in patent US9497963B2, “Methods and compositions for control of gypsy moth, Lymantria dispar” (Simon Fraser University, priority 2008, dated 2016).
# Marks after values point to notes of the source that are not given here.
# Legend:
# male gypsy moth antenna = assay: Coupled gas chromatographic-electroantennographic detection (GC-EAD); parameters: species or system Lymantria dispar; conditions: EAD peak size and shape (sharp/broad)
# Description: In GC-EAD assays, the analyte is processed by gas chromatography (GC). The column effluent is split, such that molecules of each chromatographic peak arrive simultaneously at the flame ionization detector of the GC and at an anectomized but otherwise intact insect antenna as the biological detector. This procedure detects specific compounds in the analyte that elicit an electrical potential from the antenna.
# For GC-EAD recordings, an antenna was carefully dislodged from a male moth's head, and the antennal base placed into the opening of a glass capillary electrode (0.58 mm ID×65 mm length) (A-M Systems, Inc., Carlsborg, Wash., USA) filled with saline solution. The tip of the antenna was removed by spring microscissors (Fine Science Tools Inc., North Vancouver, British Columbia, Canada) and then placed into the opening of the recording electrode mounted on a portable micromanipulator and positioned in front of a constant stream of warm air (Praxair Canada Inc., Mississauga, Ontario, Canada) which delivered the GC column eluent. […] Identical retention times of compounds detected by the flame ionization detector of the GC and by the insect antenna allowed assignment of antennal responses to specific compounds in the eluent.
# [1] = test system: male gypsy moth antenna response to pheromone (+)-1; assay: EAG short-term (STI) and long-term (LTI) inhibition of pheromone signaling (Example 5); parameters: species or system Lymantria dispar; conditions: for Activity (%): short-term inhibition (STI) / inhibition at 0.001 mg / inhibition at 0.01 mg / inhibition at 0.1 mg: negative = enhancement; for Activity (%): short-term inhibition (STI) / Activity (%): long-term inhibition (LTI) / inhibition at 0.001 mg / inhibition at 0.01 mg / inhibition at 0.1 mg / inhibition at 100 µg, 0.1 mg: mean ± S.E.; for Activity (%): long-term inhibition (LTI) / inhibition at 100 µg, 0.1 mg: pure (+)-1 100 ng plume following mixed plume with 100 μg compound; for inhibition at 0.001 mg / inhibition at 0.01 mg / inhibition at 0.1 mg / inhibition at 100 µg, 0.1 mg: Lymantria dispar; for inhibition at 0.001 mg / inhibition at 0.01 mg / inhibition at 0.1 mg: read-out: Activity (%): short-term inhibition (STI); for inhibition at 100 µg, 0.1 mg: read-out: Activity (%): long-term inhibition (LTI)
# Experimental: The puffs are numbered i-vi and were: i=air, ii=pure pheromone (+)-disparlure, (+)-1, (100 ng), iii-v=disparlure mixed with the test compound, the latter at three different doses, vi=pure (+)-1. Depolarizations from the resting potential are labeled d; hyperpolarizations seen during the recovery phase after a puff are labeled r. Subscripts refer to the puff number. FIG. 5A. Typical trace for compound 3c{2,3}. FIG. 5B. Typical trace for compound 3a{4,4}.
# For other compounds, EAG traces were recorded as follows: a fully dislodged antenna from a male gypsy moth was mounted on the end of a reference electrode (a glass capillary with a silver wire, filled with buffered saline: 5 mM NaH2PO4, 10 mM Na2SO4, 4.5 mM KHCO3, 18 mM MgCl2, 4 mM CaCl2, 6 mM KCl, the pH is adjusted to 6.8 using 5 mM Na2HPO4). The tip of the antenna was severed with microscissors and placed in the recording electrode, which was mounted on a micromanipulator. A constant stream of air, that had been purified (charcoal filter), was blown over the antenna at a rate of 300 mL/min. Test samples were delivered through a stimulus delivery tube with a side opening 2 cm from the distal opening. The proximal end of the delivery tube was connected to a controlled stimulus delivery apparatus (Stimulus controller CS-05 Syntech Research and Equipment, NL 1200BM, Hilversum, The Netherlands). The distal end of the delivery tube pointed at the antenna (1 cm from the antenna). The side opening was connected to a cartridge fashioned from a Pasteur pipette which contained a small filter paper (Whatman No. 1) with the stimulus. These pipette cartridges could be prepared a few days in advance and stored at −80° C. wrapped in Al foil and in sealable plastic bags. Sample cartridges were mounted once they had reached room temperature. The stimulus delivery apparatus delivered a second stream of air (a puff) through the Pasteur pipette at a velocity of 600 mL/min, at a specified point in time, for 0.3 s. Receptor potentials of the antennae in response to test stimuli were recorded with a Syntech IDAC probe, amplifier and interfaced board, and were analyzed with EAG Syntech Software Version 2.4 (1996). See FIG. 4 for a representative EAG trace. The EAG traces were evaluated as follows (see FIG. 5).
# The net depolarizations, d(net) (in mV), of puffs ii-vi,d(sample), (corrected for the depolarization with clean air, d(air)) d(net)=d(sample)−d(air) (Eq. 1)
# The percentage short-term inhibition for each compound (STI(compound)) of puffs iii-v, relative to the first pure pheromone puff (ii) STI(compound)=100×(d(net)(ii)−d(net)(compound))/d(net)(ii) (Eq. 2)
# c) the percentage long-term inhibition for each compound (LTI(compound)) of the pure pheromone puff that followed the last mixed puff (vi) relative to the first pure pheromone puff (ii) LTI(compound)=100×(d(net)(ii)−d(net)(vi))/d(net)(ii) (Eq. 3)
# The compounds we tested gave weak or no olfactory responses by themselves in electroantennogram (EAG) experiments. The EAG trace reflects the change in the potential across the antenna when an air puff with an odorant is passed over the antenna. To understand the agonistic or antagonistic effect of the compounds on pheromone responses by male moth antennae, four types of EAG experiment were conducted. First, the response of the antenna elicited by a stimulus of pure (+)-1 was compared to the responses elicited by blends of (+)-1 with the test compound (FIG. 5). […] This effect was termed short-term inhibition (STI). […] Second, the time decay and dose responses for LTI activities were studied. Third, the strongest inhibitors were tested for their ability to cause LTI by themselves.
# This experiment explored the agonistic or antagonistic activity of the synthetic aromatic compounds (Scheme 1 and eugenol and alkyl eugenols) with the gypsy moth pheromone (+)-1. […]
# [2] = mixed plume (+)-1 100 ng + compound 1 μg
# [3] = mixed plume (+)-1 100 ng + compound 10 μg
# [4] = mixed plume (+)-1 100 ng + compound 100 μg (puff v)
smiles,measurement,setting,value
COc1ccccc1O [2a{1}],GC-EAD activity,male gypsy moth antenna,None
same,Activity (%): short-term inhibition (STI),[1]; [2],26 ± 14 (13)^e %
same,Activity (%): short-term inhibition (STI),[1]; [3],−27 ± 24 (13) %
same,Activity (%): short-term inhibition (STI),[1]; [4],9 ± 11 (13) %
same,Activity (%): long-term inhibition (LTI),[1],−13 ± 9 (13) %
"CCOc1ccccc1O [2a{2}, 2-Ethoxy phenol]",GC-EAD activity,male gypsy moth antenna,None
same,inhibition at 0.001 mg,[1]; [2],42 ± 12%
same,inhibition at 0.01 mg,[1]; [3],26 ± 12%
same,inhibition at 0.1 mg,[1]; [4],58 ± 11%
same,"inhibition at 100 µg, 0.1 mg",[1],6 ± 4%
"CCCOc1ccccc1O [2a{3}, 2-Propoxy phenol]",GC-EAD activity,male gypsy moth antenna,None
same,inhibition at 0.001 mg,[1]; [2],-26 ± 14%
same,inhibition at 0.01 mg,[1]; [3],32 ± 9%
same,inhibition at 0.1 mg,[1]; [4],46 ± 13%
same,"inhibition at 100 µg, 0.1 mg",[1],18 ± 5%
"CCCCOc1ccccc1O [2a{4}, 2-Butoxy phenol]",GC-EAD activity,male gypsy moth antenna,None
same,inhibition at 0.001 mg,[1]; [2],26 ± 12%
same,inhibition at 0.01 mg,[1]; [3],21 ± 11%
same,inhibition at 0.1 mg,[1]; [4],50%
same,"inhibition at 100 µg, 0.1 mg",[1],5 ± 6%
"CC(C)CCOc1ccccc1O [2a{5}, 2-(3-Methyl-butyloxy) phenol]",GC-EAD activity,male gypsy moth antenna,None
same,short-term effect on antennal pheromone response (in words),[1],slightly agonistic
same,inhibition at 0.001 mg,[1]; [2],22 ± 8%
same,inhibition at 0.01 mg,[1]; [3],-44 ± 26%
same,inhibition at 0.1 mg,[1]; [4],-37 ± 33%
same,"inhibition at 100 µg, 0.1 mg",[1],6 ± 6%
"C=CCOc1ccccc1O [2a{6}, 2-Allyloxy phenol]",GC-EAD activity,male gypsy moth antenna,None
same,inhibition at 0.001 mg,[1]; [2],-63 ± 62%
same,inhibition at 0.01 mg,[1]; [3],-33 ± 40%
same,inhibition at 0.1 mg,[1]; [4],-31 ± 71%
same,"inhibition at 100 µg, 0.1 mg",[1],16 ± 8%
"COc1cccc(O)c1 [2b{1}, 3-Methoxy phenol]",GC-EAD activity,male gypsy moth antenna,None
same,inhibition at 0.001 mg,[1]; [2],6 ± 11%
same,inhibition at 0.01 mg,[1]; [3],14 ± 22%
same,inhibition at 0.1 mg,[1]; [4],49 ± 8%
same,"inhibition at 100 µg, 0.1 mg",[1],4 ± 7%
"CCOc1cccc(O)c1 [2b{2}, 3-Ethoxy phenol]",GC-EAD activity,male gypsy moth antenna,None
same,inhibition at 0.001 mg,[1]; [2],4 ± 20%
same,inhibition at 0.01 mg,[1]; [3],0%
same,inhibition at 0.1 mg,[1]; [4],44 ± 18%
same,"inhibition at 100 µg, 0.1 mg",[1],-3 ± 5%
"CCCOc1cccc(O)c1 [2b{3}, 3-Propoxy phenol]",GC-EAD activity,male gypsy moth antenna,None
same,inhibition at 0.001 mg,[1]; [2],-6 ± 14%
same,inhibition at 0.01 mg,[1]; [3],36 ± 19%
same,inhibition at 0.1 mg,[1]; [4],65 ± 14%
same,"inhibition at 100 µg, 0.1 mg",[1],8 ± 6%
"CCCCOc1cccc(O)c1 [2b{4}, 3-butoxyphenol]",GC-EAD activity,male gypsy moth antenna,None
same,short-term effect on antennal pheromone response (in words),[1],short-term enhancements
same,inhibition at 0.001 mg,[1]; [2],-6 ± 18%
same,inhibition at 0.01 mg,[1]; [3],-20 ± 31%
same,inhibition at 0.1 mg,[1]; [4],-74 ± 71%
same,"inhibition at 100 µg, 0.1 mg",[1],-1 ± 15%
"CC(C)CCOc1cccc(O)c1 [2b{5}, 3-(3-Methyl-butyloxy) phenol]",GC-EAD activity,male gypsy moth antenna,None
same,inhibition at 0.001 mg,[1]; [2],-87 ± 63%
same,inhibition at 0.01 mg,[1]; [3],-111 ± 78%
same,inhibition at 0.1 mg,[1]; [4],-9 ± 58%
same,"inhibition at 100 µg, 0.1 mg",[1],4 ± 7%
C=CCOc1cccc(O)c1 [2b{6}],GC-EAD activity,male gypsy moth antenna,None
same,Activity (%): short-term inhibition (STI),[1]; [2],24 ± 23 (7) %
same,Activity (%): short-term inhibition (STI),[1]; [3],28 ± 20 (7) %
same,Activity (%): short-term inhibition (STI),[1]; [4],5 ± 32 (7) %
same,Activity (%): long-term inhibition (LTI),[1],1 ± 7 (7) %
"CCCCOc1ccc(O)cc1 [2c{4}, 4-Butoxy phenol]",GC-EAD activity,male gypsy moth antenna,None
same,short-term effect on antennal pheromone response (in words),[1],short-term enhancements
same,inhibition at 0.001 mg,[1]; [2],12 ± 37%
same,inhibition at 0.01 mg,[1]; [3],38 ± 11%
same,inhibition at 0.1 mg,[1]; [4],-122 ± 84%
same,"inhibition at 100 µg, 0.1 mg",[1],26 ± 13%
"C=CCOc1ccc(O)cc1 [2c{6}, 4-Allyloxy phenol]",GC-EAD activity,male gypsy moth antenna,None
same,inhibition at 0.001 mg,[1]; [2],19 ± 10%
same,inhibition at 0.01 mg,[1]; [3],42 ± 8%
same,inhibition at 0.1 mg,[1]; [4],46 ± 10%
same,"inhibition at 100 µg, 0.1 mg",[1],24 ± 8%
"CC(C)CCOc1ccccc1OCCC(C)C [3a{5,5}, 1,2-Di-(3-methyl-butyloxy) benzene]",GC-EAD activity,male gypsy moth antenna,None
same,inhibition at 0.001 mg,[1]; [2],-77 ± 58%
same,inhibition at 0.01 mg,[1]; [3],-55 ± 67%
same,inhibition at 0.1 mg,[1]; [4],-105 ± 81%
same,"inhibition at 100 µg, 0.1 mg",[1],0%
"C=CCOc1ccccc1OCC=C [3a{6,6}, 1,2-Diallyloxy benzene]",GC-EAD activity,male gypsy moth antenna,None
same,inhibition at 0.001 mg,[1]; [2],32 ± 16%
same,inhibition at 0.01 mg,[1]; [3],16 ± 24%
same,inhibition at 0.1 mg,[1]; [4],-27 ± 48%
same,"inhibition at 100 µg, 0.1 mg",[1],17 ± 28%
"COc1cccc(OC)c1 [3b{1,1}, 1,3-Dimethoxy benzene]",GC-EAD activity,male gypsy moth antenna,Trace
same,inhibition at 0.001 mg,[1]; [2],25 ± 18%
same,inhibition at 0.01 mg,[1]; [3],9 ± 40%
same,inhibition at 0.1 mg,[1]; [4],44 ± 36%
same,"inhibition at 100 µg, 0.1 mg",[1],1 ± 8%
"C=CCOc1cccc(OC)c1 [3b{1,6}, 1-allyloxy-3-methoxybenzene]",GC-EAD activity,male gypsy moth antenna,None
same,inhibition at 0.001 mg,[1]; [2],-67 ± 61%
same,inhibition at 0.01 mg,[1]; [3],-107 ± 88%
same,inhibition at 0.1 mg,[1]; [4],-95 ± 106%
same,"inhibition at 100 µg, 0.1 mg",[1],14 ± 13%
"CCOc1cccc(OCC)c1 [3b{2,2}, 1,3-Diethoxy benzene]",GC-EAD activity,male gypsy moth antenna,Trace
same,inhibition at 0.001 mg,[1]; [2],-100 ± 51%
same,inhibition at 0.01 mg,[1]; [3],-12 ± 70%
same,inhibition at 0.1 mg,[1]; [4],63 ± 65%
same,"inhibition at 100 µg, 0.1 mg",[1],39 ± 6%
"CCCOc1cccc(OCCC)c1 [3b{3,3}, 1,3-Dipropoxy benzene]",GC-EAD activity,male gypsy moth antenna,None
same,inhibition at 0.001 mg,[1]; [2],36 ± 11%
same,inhibition at 0.01 mg,[1]; [3],1 ± 26%
same,inhibition at 0.1 mg,[1]; [4],-2 ± 34%
same,"inhibition at 100 µg, 0.1 mg",[1],45 ± 12%
